The values below come from ChEMBL document CHEMBL2321830 (J Med Chem, 2013).

Numbering of substitutions follows the chain as printed. Some results are limits rather than exact numbers.

The target in one assay is T1, Aldo-keto reductase family 1 member C2 (Homo sapiens, UniProt P52895).
T1 sequence (P52895 whole entry): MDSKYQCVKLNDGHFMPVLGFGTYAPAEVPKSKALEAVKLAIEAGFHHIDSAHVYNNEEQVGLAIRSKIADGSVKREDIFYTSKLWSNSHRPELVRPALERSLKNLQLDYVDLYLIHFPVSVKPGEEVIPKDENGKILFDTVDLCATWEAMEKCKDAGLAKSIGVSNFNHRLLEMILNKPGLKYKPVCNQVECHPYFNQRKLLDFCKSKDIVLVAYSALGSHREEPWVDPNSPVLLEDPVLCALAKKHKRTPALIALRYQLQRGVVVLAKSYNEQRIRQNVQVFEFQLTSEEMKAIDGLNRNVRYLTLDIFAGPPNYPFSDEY
Kind of assay: Inhibition of human recombinant AKR1C2-mediated NADP+-dependent oxidation of S-(+)-1,2,3,4-tetrahydro-1-naphthol.
The IC50 is the concentration at which inhibition is half-maximal. For `COc1ccc(S(=O)(=O)NC(=O)Cc2cn(C(=O)c3ccc(Cl)cc3)c3ccc(OC)cc23)cc1`, the IC50 is 39.9 µM.

Consider `COc1ccc2c(c1)c(CC(=O)NS(=O)(=O)c1ccc(F)cc1)cn2C(=O)c1ccc(Cl)cc1`, for which the IC50 is 39.9 µM.

In the case of `COc1ccc2c(c1)c(CC(=O)NS(=O)(=O)c1ccc(C#N)cc1)cn2C(=O)c1ccc(Cl)cc1`, the 50% inhibitory concentration (IC50) is 33 µM.

Take `COc1ccc2c(c1)c(CC(=O)NS(=O)(=O)c1ccc(Br)cc1)cn2C(=O)c1ccc(Cl)cc1`: the 50% inhibitory concentration (IC50) turned out to be 39.9 µM.

In the case of `COc1ccc2c(c1)c(CC(=O)NS(=O)(=O)c1cc(C(F)(F)F)ccc1C(F)(F)F)cn2C(=O)c1ccc(Cl)cc1`, the concentration for half-maximal inhibition (IC50) is 19.3 µM.

With `CCC(=O)Cc1cn(C(=O)O)c2ccc(OC)cc12`, the IC50 is 100 µM.

On to `CCC(=O)Cc1cn(C(=O)OC)c2ccc(OC)cc12`, for which the IC50 is over 100 µM.

Regarding `COc1ccc2c(c1)c(C)c(CC(C)(C)C(=O)O)n2C(=O)c1ccc(Cl)cc1`, the IC50 was 9.82 µM.

Take `COc1ccc2c(c1)c(C)c(CC(C)C(=O)NS(C)(=O)=O)n2C(=O)c1ccc(Cl)cc1` (stereo not drawn): the IC50 came out at 116 µM.

As to `COc1ccc2c(c1)c(C)c(CCC(=O)NS(=O)(=O)c1ccc(C)cc1)n2C(=O)c1ccc(Cl)cc1`, the 50% inhibitory concentration (IC50) stood at 12.3 µM.

Take `COc1ccc2c(c1)c(C)c(CCC(=O)NS(=O)(=O)c1ccc3ccccc3c1)n2C(=O)c1ccc(Cl)cc1`: the concentration for half-maximal inhibition (IC50) amounted to 72.3 µM.

In the case of `COc1ccc2c(c1)c(C)c(CCC(=O)NS(=O)(=O)c1ccccc1C)n2C(=O)c1ccc(Cl)cc1`, the concentration for half-maximal inhibition (IC50) came to 21.1 µM.

Turning to `COc1ccc2c(c1)c(C)c(CCC(=O)NS(=O)(=O)c1ccc(C(F)(F)F)cc1)n2C(=O)c1ccc(Cl)cc1`, the IC50 is 33.7 µM.

For `COc1ccc2c(c1)c(C)c(CCC(=O)NS(=O)(=O)c1ccc(OC(F)(F)F)cc1)n2C(=O)c1ccc(Cl)cc1`, the concentration for half-maximal inhibition (IC50) came to 40.4 µM.

Regarding `COc1ccc2c(c1)c(C)c(CCC(=O)NS(=O)(=O)c1ccc(C(C)=O)cc1)n2C(=O)c1ccc(Cl)cc1`, the half-maximal inhibitory concentration (IC50) came to 27.4 µM.

For the compound `COc1ccc2c(c1)c(C)c(CCC(=O)NS(=O)(=O)c1ccc(C(C)C)cc1)n2C(=O)c1ccc(Cl)cc1`, the half-maximal inhibitory concentration (IC50) amounted to 55.3 µM.

On to `COc1ccc2c(c1)c1c(n2C(=O)c2cccc(C(F)(F)F)c2)CCC(C(=O)O)C1` (stereo not drawn), for which the IC50 came to 100 µM.

For `COc1ccc2c(c1)c1c(n2C(=O)c2ccc(Cl)cc2)CCC(C(=O)NS(C)(=O)=O)C1` (stereo not drawn), the half-inhibitory concentration (IC50) was over 100 µM.

Regarding `COc1ccc2c(c1)c1c(n2C(=O)c2ccc(Cl)cc2)CC(C(=O)O)CC1` (stereo not drawn), the 50% inhibitory concentration (IC50) is 48.2 µM.

For `COC(=O)Cc1c(C)n(C(=O)c2ccc(Cl)cc2)c2ccc(OC)cc12`, the IC50 was over 100 µM.

In the case of `COc1ccc2c(c1)c(C)c(CC(C)C(=O)O)n2C(=O)c1ccc(Cl)cc1` (racemic), the IC50 worked out at 12.3 µM.

As for `COc1ccc2[nH]c(C)c(CC(=O)O)c2c1` [DESCHLOROBENZOYL INDOMETHACIN], the IC50 was 100 µM.

Another assay concerns the target T2, Aldo-keto reductase family 1 member C1 (Homo sapiens, UniProt Q04828).
T2 sequence (Q04828 whole entry): T1 sequence (P52895 whole entry) with V38T, H47R, V54L, S87C, M151V, H170R, L172Q
Kind of assay: Inhibition of human recombinant AKR1C1-mediated NADP+-dependent oxidation of S-(+)-1,2,3,4-tetrahydro-1-naphthol.
Turning to `COc1ccc2c(c1)c(CC(=O)NS(=O)(=O)C(F)(F)F)cn2C(=O)c1ccc(Cl)cc1`, the IC50 is over 100 µM.

For another assay, the target named is T3, Aldo-keto reductase family 1 member C3 (Homo sapiens, UniProt P42330).
T3 sequence (P42330 whole entry): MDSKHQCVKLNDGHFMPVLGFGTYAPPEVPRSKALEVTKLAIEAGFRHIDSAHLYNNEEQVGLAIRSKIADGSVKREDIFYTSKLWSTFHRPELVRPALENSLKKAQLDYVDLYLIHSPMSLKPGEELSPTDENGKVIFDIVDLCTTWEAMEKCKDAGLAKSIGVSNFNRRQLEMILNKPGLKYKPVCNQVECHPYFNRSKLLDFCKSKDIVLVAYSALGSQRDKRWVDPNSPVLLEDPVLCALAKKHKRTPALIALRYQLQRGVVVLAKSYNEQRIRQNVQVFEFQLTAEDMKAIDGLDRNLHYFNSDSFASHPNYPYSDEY
Kind of assay: Inhibition of human recombinant AKR1C3-mediated NADP+-dependent oxidation of S-(+)-1,2,3,4-tetrahydro-1-naphthol.
With `COc1ccc(S(=O)(=O)NC(=O)Cc2cn(C(=O)c3ccc(Cl)cc3)c3ccc(OC)cc23)cc1`, the IC50 amounted to 5800 nM.

`COc1ccc2c(c1)c(CC(=O)NS(=O)(=O)c1ccc(F)cc1)cn2C(=O)c1ccc(Cl)cc1`: the half-inhibitory concentration (IC50) came out at 7860 nM.

On to `COc1ccc2c(c1)c(CC(=O)NS(=O)(=O)c1ccc(Oc3ccccc3)cc1)cn2C(=O)c1ccc(Cl)cc1`, for which the IC50 came to 2520 nM.

With `COc1ccc2c(c1)c(CC(=O)NS(=O)(=O)c1ccc(C#N)cc1)cn2C(=O)c1ccc(Cl)cc1`, the IC50 came to 1110 nM.

As to `COc1ccc2c(c1)c(CC(=O)NS(=O)(=O)c1ccc(Br)cc1)cn2C(=O)c1ccc(Cl)cc1`, the IC50 was 3970 nM.

Regarding `COc1ccc2c(c1)c(CC(=O)NS(=O)(=O)c1cc(C(F)(F)F)ccc1C(F)(F)F)cn2C(=O)c1ccc(Cl)cc1`, the IC50 is 1940 nM.

For `CCC(=O)Cc1cn(C(=O)O)c2ccc(OC)cc12`, the IC50 came to 2400 nM.

`CCC(=O)Cc1cn(C(=O)OC)c2ccc(OC)cc12`: the IC50 was found to be 22800 nM.

As for `COc1ccc2c(c1)c(C)c(CC(C)(C)C(=O)O)n2C(=O)c1ccc(Cl)cc1`, the IC50 was 120 nM.

Take `COc1ccc2c(c1)c(C)c(CC(C)C(=O)NS(C)(=O)=O)n2C(=O)c1ccc(Cl)cc1` (stereo not drawn): the IC50 was determined as 5530 nM.

`COc1ccc2c(c1)c(C)c(CCC(=O)NS(=O)(=O)c1ccc(C)cc1)n2C(=O)c1ccc(Cl)cc1`: the IC50 worked out at 3110 nM.

As to `COc1ccc2c(c1)c(C)c(CCC(=O)NS(=O)(=O)c1ccc3ccccc3c1)n2C(=O)c1ccc(Cl)cc1`, the half-inhibitory concentration (IC50) amounted to 2540 nM.

Turning to `COc1ccc2c(c1)c(C)c(CCC(=O)NS(=O)(=O)c1ccccc1C)n2C(=O)c1ccc(Cl)cc1`, the half-maximal inhibitory concentration (IC50) stood at 3250 nM.

Regarding `COc1ccc2c(c1)c(C)c(CCC(=O)NS(=O)(=O)c1ccc(C(F)(F)F)cc1)n2C(=O)c1ccc(Cl)cc1`, the IC50 stood at 1110 nM.

As for `COc1ccc2c(c1)c(C)c(CCC(=O)NS(=O)(=O)c1ccc(OC(F)(F)F)cc1)n2C(=O)c1ccc(Cl)cc1`, the IC50 came to 2500 nM.

As for `COc1ccc2c(c1)c(C)c(CCC(=O)NS(=O)(=O)c1ccc(C(C)=O)cc1)n2C(=O)c1ccc(Cl)cc1`, the 50% inhibitory concentration (IC50) stood at 2650 nM.

In the case of `COc1ccc2c(c1)c(C)c(CCC(=O)NS(=O)(=O)c1ccc(C(C)C)cc1)n2C(=O)c1ccc(Cl)cc1`, the IC50 was 4690 nM.

As for `COc1ccc2c(c1)c1c(n2C(=O)c2cccc(C(F)(F)F)c2)CCC(C(=O)O)C1` (stereo not drawn), the 50% inhibitory concentration (IC50) is 279 nM.

`COc1ccc2c(c1)c1c(n2C(=O)c2ccc(Cl)cc2)CCC(C(=O)NS(C)(=O)=O)C1` (stereo not drawn): the IC50 is 5070 nM.

For `COc1ccc2c(c1)c1c(n2C(=O)c2ccc(Cl)cc2)CC(C(=O)O)CC1` (stereo not drawn), the half-inhibitory concentration (IC50) came out at 340 nM.

Regarding `COC(=O)Cc1c(C)n(C(=O)c2ccc(Cl)cc2)c2ccc(OC)cc12`, the IC50 was 5670 nM.

In the case of `COc1ccc2c(c1)c(C)c(CC(C)C(=O)O)n2C(=O)c1ccc(Cl)cc1` (racemic), the concentration for half-maximal inhibition (IC50) turned out to be 290 nM.

Turning to `COc1ccc2[nH]c(C)c(CC(=O)O)c2c1` [DESCHLOROBENZOYL INDOMETHACIN], the half-maximal inhibitory concentration (IC50) is over 100000 nM.

The next assay concerns the target T4, Aldo-keto reductase family 1 member C4 (Homo sapiens, UniProt P17516).
T4 sequence (P17516 whole entry): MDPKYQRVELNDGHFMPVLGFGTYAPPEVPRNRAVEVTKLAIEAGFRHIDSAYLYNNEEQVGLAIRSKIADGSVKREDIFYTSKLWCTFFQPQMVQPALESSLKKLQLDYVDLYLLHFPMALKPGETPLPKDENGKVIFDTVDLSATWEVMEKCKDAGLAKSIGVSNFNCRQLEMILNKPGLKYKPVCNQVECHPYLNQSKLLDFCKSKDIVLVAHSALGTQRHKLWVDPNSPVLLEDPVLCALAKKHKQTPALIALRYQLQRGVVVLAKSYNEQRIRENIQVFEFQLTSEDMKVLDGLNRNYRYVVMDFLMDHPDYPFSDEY
Kind of assay: Inhibition of human recombinant AKR1C4-mediated NADP+-dependent oxidation of S-(+)-1,2,3,4-tetrahydro-1-naphthol.
For `COc1ccc2c(c1)c(CCC(=O)O)c(C)n2C(=O)c1ccc(Cl)cc1`, the half-maximal inhibitory concentration (IC50) is over 100 µM.

`COc1ccc2c(c1)c(CC(=O)NS(=O)(=O)C(F)(F)F)cn2C(=O)c1ccc(Cl)cc1`: the IC50 is over 100 µM.
